Values quoted from earlier work, collected in article PMC7938295 (Biomedical Reports, 2021).

Biological target: DPP4 (Homo sapiens, UniProt P27487)
Conditions: read-out: DPP4 Ki

Chain of DPP4 (P27487 whole entry): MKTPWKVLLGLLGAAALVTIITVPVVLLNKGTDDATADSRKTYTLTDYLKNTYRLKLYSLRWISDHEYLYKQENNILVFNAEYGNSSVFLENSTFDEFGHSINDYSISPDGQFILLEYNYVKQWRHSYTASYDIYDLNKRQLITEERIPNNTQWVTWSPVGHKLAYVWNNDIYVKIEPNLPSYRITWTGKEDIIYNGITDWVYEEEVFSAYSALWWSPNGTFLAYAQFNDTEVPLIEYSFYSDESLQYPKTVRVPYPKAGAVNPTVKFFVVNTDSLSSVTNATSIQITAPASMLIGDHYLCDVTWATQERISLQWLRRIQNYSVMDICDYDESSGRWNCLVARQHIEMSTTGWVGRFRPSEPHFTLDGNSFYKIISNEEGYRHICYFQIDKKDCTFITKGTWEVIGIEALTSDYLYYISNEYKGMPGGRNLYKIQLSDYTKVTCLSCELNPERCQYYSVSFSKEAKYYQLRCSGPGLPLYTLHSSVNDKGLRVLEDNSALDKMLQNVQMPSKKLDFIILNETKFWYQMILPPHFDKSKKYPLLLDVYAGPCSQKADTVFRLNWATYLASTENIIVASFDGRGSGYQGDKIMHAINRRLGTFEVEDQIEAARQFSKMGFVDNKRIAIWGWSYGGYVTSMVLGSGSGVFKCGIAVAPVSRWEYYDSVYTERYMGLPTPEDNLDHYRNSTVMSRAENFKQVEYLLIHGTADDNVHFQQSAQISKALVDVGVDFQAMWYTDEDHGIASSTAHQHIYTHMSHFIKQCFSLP

## O=c1cc(-c2ccccc2)oc2ccccc12 [flavone]
  Ki: 18.6 µM
